Our source for the LD50 and Activity values is ChEMBL document CHEMBL1149058, “Further Chemical Studies of Mediterranean and Atlantic Hypselodoris Nudibranchs: A New Furanosesquiterpenoid from Hypsdodoris webbi” (J Nat Prod, 1994).

Series [1] has as its system Artemia salina. Put plainly: Toxicity against Artemia salina. Type of series: organism-based. Conditions: in vivo.
The subject of series [2] is Gambusia affinis. Put plainly: Ichthyotoxicity against Gambusia affinis at 10 ppm within 24 hrs. Format: organism-based. Particulars: in vivo.

In series [1], `CC1=C[C@@H]2Cc3occc3C(C)(C)[C@@H]2C=C1` registered an LD50 of 1.52 ppm. Further, the Activity entry in series [2] is reported as “Toxic”.
